We go through 13 molecules from patent US20240398767A1, “INHIBITORS OF THE MTDH-SND1 PROTEIN COMPLEX FOR CANCER THERAPY” (The Trustees of Princeton University, priority 2021, published 2024).

Assay [1] concerns the target T1, MTDH-SND1 interaction: SND1-NLuc (human SND1 16-339aa fused via 3x GGGS linker to N-terminal firefly luciferase 1-416aa) + CLuc-MTDH (C-terminal firefly luciferase 398-550aa fused via 3x GGGS linker to human MTDH 386-407aa) (Homo sapiens, UniProt Q7KZF4).
T1 construct: CLuc (398-550)-GGGS linker-MTDH (386-407) with HA tag; expressed in HEK293T; cell-free split-luciferase complementation
The assay can be described thus: Cell-free split-luciferase assay of MTDH-SND1 interaction disruption, multiple doses (FIG. 3E). The class given is binding. As to conditions: cell free (HEK293T lysates), curves fit, read-out: MTDH-SND1 interaction (split-luciferase) SND1-NLuc + CLuc-MTDH interaction domains IC50.

The target in assay [2] is T2, MTDH-SND1 interaction (Homo sapiens, UniProt Q7KZF4).
T2 construct: made in house; host or cells: HEK293T cells, transient transfection of pcDNA3.1 plasmids; crude cleared lysates, each fusion expressed separately and the lysates pre-mixed
In words: Cell-free split-luciferase (Split-luc) assay, SND1-NLuc + CLuc-MTDH. The format is biochemical. As to conditions: for IC50: split-luc assay in various concentrations; for split-luc activity: 50 μM peptide. An excerpt: To generate a luciferase-based screening system, firefly luciferase was split into N- and C-terminals according to previous studies^21-23. Both N- and C-terminal domains alone have almost undetectable luciferase activity (FIG. 10A). Next, the two fragments were fused to SND1 and MTDH interaction domains respectively to generate SND1-NLuc and CLuc-MTDH (Split-luc) (FIG. 10A, left, and Table 3). […] However, when SND1-NLuc+CLuc-MTDH were co-expressed, N- and C-terminal domains of the luciferase fragments were brought close to each other due to the interaction between SND1 and MTDH, and substantial luciferase activity was reconstituted (FIG. 3A, left and FIG. 10A).
Luciferase-based screening. Seed HEK293T cells on 3×15 cm dish at 18-24 hr before transfection with 7-8×10^6 cells per dish targeting 70-80% confluence when start transfection. 20 μg of pCDNA3.1-SND1-NLuc, pCDNA3.1-CLuc-MTDH, or 2 μg of pCDNA3.1-NLuc-CLuc plasmids that described above were transfected to each dish. 72 hr after transfection the cells were lysed with 5 ml of luciferase lysis buffer (2 mM EDTA, 20 mM DTT, 10% glycerol, 1% Triton X-100, 25 mM Tris base, adjusted to pH7.8 with H3PO4) at 4° C. for 20 min. The protein lysates were centrifuged at 13,000 rpm for 10 min, and the supernatant were collected.
For small chemical compound screening, white, flat-bottom, solid 384-well plates were used. Compounds were added into each well as 0.1 μl of 10 mM DMSO solution (or same amount of DMSO, serve as control). The first and last columns were free, and MTDH wild type (PNSDWNAPAEEWGNW) or mutant (PNSDANAPAEEAGNW) peptides were added as positive and negative controls right before screening. Same amount of MTDH-CLuc and SND1-NLuc were pre-mixed at 4° C. for 30 min to generate split-luc. 5 μl of split- or linked-luc was added into each well. 15 μl of luciferase assay buffer (25 mM Glycylglycine pH 7.8, 15 mM K3PO4 pH 7.8, 15 mM MgSO4, 4 mM EGTA, 2 mM ATP added just before use, 10 mM DTT added just before use and 1 mM D-Luciferin added just before use) was then added into each well to get a 20 μl reaction system with 50 μM of compounds (peptides) in each well. The plates were incubated at 4° C. for 1 hr and luciferase activity at each well was measured.
The inhibitory efficiency of each compound was calculated as following: (signal at DMSO well−signal at compound well)/signal at DMSO well. MTDH wild type or mutant peptide in each plate was served as positive and negative controls to monitor the data quality of each plate.
T2 sequence (Q7KZF4 with tags, fused parts or gaps): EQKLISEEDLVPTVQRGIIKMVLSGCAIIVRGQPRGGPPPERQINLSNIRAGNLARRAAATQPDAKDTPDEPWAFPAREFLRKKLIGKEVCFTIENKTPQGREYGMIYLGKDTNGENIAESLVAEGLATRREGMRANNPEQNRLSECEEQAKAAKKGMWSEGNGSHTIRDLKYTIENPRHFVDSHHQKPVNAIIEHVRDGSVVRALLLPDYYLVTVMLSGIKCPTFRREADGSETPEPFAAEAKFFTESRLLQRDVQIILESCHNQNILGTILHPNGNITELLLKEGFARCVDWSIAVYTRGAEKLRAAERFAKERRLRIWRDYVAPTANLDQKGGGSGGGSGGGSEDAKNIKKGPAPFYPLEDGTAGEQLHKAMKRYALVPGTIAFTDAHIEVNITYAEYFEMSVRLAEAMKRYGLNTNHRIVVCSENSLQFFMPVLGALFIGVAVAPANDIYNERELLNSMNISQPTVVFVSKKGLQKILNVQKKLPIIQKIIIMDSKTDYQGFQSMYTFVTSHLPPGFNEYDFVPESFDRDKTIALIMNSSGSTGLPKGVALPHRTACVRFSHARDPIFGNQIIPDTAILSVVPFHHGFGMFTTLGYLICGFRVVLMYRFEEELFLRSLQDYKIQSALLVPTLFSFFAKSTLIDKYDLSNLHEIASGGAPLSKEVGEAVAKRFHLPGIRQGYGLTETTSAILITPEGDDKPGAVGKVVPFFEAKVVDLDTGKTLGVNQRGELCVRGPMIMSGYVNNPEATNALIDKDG

For assay [3], the system named is 4TO7 lung metastases. The assay can be described thus: Established 4TO7 lung macrometastases. The class given is in vivo, Balb/C females. The protocol: For FIGS. 7A-7D, 2 k 4TO7 cells were injected into Balb/C females. 2 weeks after the injections, the mice were randomized based on lung metastasis that indicated by BLI, and were divided into four groups followed by vehicle, paclitaxel (Pac), and C26-A6 treatment alone or in combination. For Pac, the mice were treated with 20 mg/kg of Pac twice per week for the first two week and then once per week after that, For C26-A6, the mice were treated with 15 mg/kg of C26-A6 5 days per week. n=6 mice per group. Data represent mean±SEM.
FIG. 7A, Representative mice right before the treatment (week 2) and at week 10 are shown.
FIG. 7B, The BLI signal was quantified at week 2. Significance determined by one-way ANOVA analysis with Dunnett's test for multiple comparisons.
FIG. 7C, The metastasis progression of each individual is shown.
FIG. 7D, Survival rate in each group was analyzed. Significance determined by two-sided Log-rank test.
Lastly, to mimic the clinical scenario of adjuvant chemotherapy following surgical removal of the primary tumors, SCP28 mammary tumors were removed when they reached 5 mm in diameter, the mice were then randomly separated into four groups and subjected to the different treatment regimens as above. […] The mice were then treated with vehicle or paclitaxel and C26-A6 alone or in combination, and the metastasis progression was monitored by BLL.

Assay [4] addresses T3, Linked-luc (NLuc and CLuc of firefly luciferase fused together) (Photinus pyralis, UniProt P08659, INS416[…]).
T3 construct: made in house; host or cells: HEK293T cells, transient transfection of pcDNA3.1-NLuc-CLuc; crude cleared lysate
In words: Linked-luciferase (Linked-luc) counter screen, cell free. The class given is biochemical. The conditions noted are these: 50 μM peptide. An excerpt: The interaction between SND1-NLuc and CLuc-MTDH was also validated with co-immunoprecipitation (Co-IP) experiments (FIG. 10B). In the presence of the compounds (inhibitors) that block MTDH-SND1 interaction, the reconstitution of luciferase activity was expected to be reduced (FIG. 3A). Meanwhile, considering the possibility that compounds capable of directly inhibiting the enzymatic activity of luciferase could also result in lower luciferase signal without any blocking effect on MTDH-SND1 interaction, Linked-luc that directly fuse NLuc and CLuc together was generated to be used in counter screening (FIG. 3A, right, and Table 3).
Luciferase-based screening. Seed HEK293T cells on 3×15 cm dish at 18-24 hr before transfection with 7-8×10^6 cells per dish targeting 70-80% confluence when start transfection. 20 μg of pCDNA3.1-SND1-NLuc, pCDNA3.1-CLuc-MTDH, or 2 μg of pCDNA3.1-NLuc-CLuc plasmids that described above were transfected to each dish. 72 hr after transfection the cells were lysed with 5 ml of luciferase lysis buffer (2 mM EDTA, 20 mM DTT, 10% glycerol, 1% Triton X-100, 25 mM Tris base, adjusted to pH7.8 with H3PO4) at 4° C. for 20 min. […]
For small chemical compound screening, white, flat-bottom, solid 384-well plates were used. […] The plates were incubated at 4° C. for 1 hr and luciferase activity at each well was measured.
In general terms: The purpose of a counterscreen is to sort out artefacts and off-target activity.

The target in assay [5] is T4, MTDH-SND1 interaction (Homo sapiens, UniProt Q7KZF4).
T4 construct: endogenous in cells; host or cells: SCP28 cells (lysate)
T4 sequence (Q7KZF4 2-910 limits assumed): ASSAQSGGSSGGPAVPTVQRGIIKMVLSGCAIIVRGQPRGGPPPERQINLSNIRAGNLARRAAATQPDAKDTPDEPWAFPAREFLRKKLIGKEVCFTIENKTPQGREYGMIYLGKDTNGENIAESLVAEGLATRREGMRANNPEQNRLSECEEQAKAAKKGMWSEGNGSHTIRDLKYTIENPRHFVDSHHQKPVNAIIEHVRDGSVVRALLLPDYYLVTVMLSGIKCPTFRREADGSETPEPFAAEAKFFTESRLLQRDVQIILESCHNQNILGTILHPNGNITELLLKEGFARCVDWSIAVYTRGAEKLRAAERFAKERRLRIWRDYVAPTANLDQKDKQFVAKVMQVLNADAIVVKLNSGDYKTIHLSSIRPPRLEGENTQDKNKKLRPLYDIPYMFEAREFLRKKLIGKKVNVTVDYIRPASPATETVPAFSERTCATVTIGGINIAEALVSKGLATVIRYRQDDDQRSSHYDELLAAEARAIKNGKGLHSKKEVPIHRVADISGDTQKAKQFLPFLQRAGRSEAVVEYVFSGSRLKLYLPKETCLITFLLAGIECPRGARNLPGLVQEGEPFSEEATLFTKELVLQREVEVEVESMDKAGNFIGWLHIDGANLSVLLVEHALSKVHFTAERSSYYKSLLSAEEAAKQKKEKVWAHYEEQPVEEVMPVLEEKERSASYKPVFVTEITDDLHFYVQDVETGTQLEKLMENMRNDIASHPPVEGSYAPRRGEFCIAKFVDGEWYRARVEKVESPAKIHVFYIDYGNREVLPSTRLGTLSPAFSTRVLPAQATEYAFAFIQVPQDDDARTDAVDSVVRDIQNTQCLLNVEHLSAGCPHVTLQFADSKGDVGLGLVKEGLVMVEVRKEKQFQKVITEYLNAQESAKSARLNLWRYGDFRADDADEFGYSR
In words: Co-immunoprecipitation (Co-IP) in SCP28 lysates with anti-MTDH antibody, Western blot for SND1. The format is binding. The conditions noted are these: 500 μM, SCP28 lysate. How it is done:
FIG. 3F, SCP28 cells grown confluent in each 10-cm dish were lysed with 1 ml IP lysis buffer. 500 μM of the compounds were added into each 1 ml of the samples and IP lysis buffer with 2 μg of anti-MTDH antibody. Western blot was then performed to detect SND1 that binds to MTDH.
FIG. 10E, Schematic diagram of Co-IP based confirmation of MTDH-SND1 inhibitory compounds (left). SCP28 cells were lysed for IP assay.2 μg of MTDH antibody together with 500 μM of MTDH wild type (Pep-WT) or mutant (Pep-MT) peptides were added into each 1 ml of samples. Red star indicates wild type MTDH peptide competing off SND1 that binds to MTDH.
Co-immunoprecipitation assay (Co-IP), which is a commonly used standard test to determine protein-protein interaction, was next employed to validate the candidates. Lysates of breast cancer cell line SCP28, a single cell-derived subline from the MDA-MB-231 TNBC cell line^25, was immunoprecipitated with anti-MTDH antibody alone or together with inhibitors (FIG. 3F and FIG. 10E). The samples were then incubated with Protein-A/G beads to pull down MTDH, followed by Western blot analysis to detect SND1. […] Using multiple screening and validation platforms, two classes of compounds, C26s and C32s, were obtained that inhibit MTDH-SND1 interaction.
Immunoprecipitation (IP) and western blotting (WB) analysis. For IP experiment, samples were prepared as previously described^32. 100 μl of the supernatant was transferred to a new tube as input, and the rest was incubated with 2 μg of IgG, anti-Myc (Santa Cruz, SC-40), or anti-MTDH (ThermoFisher, 40-6500) (as indicated in each experiment) overnight at 4° C. (small chemical compounds may be added at this step as indicated in each experiment). The rest standard IP procedures were performed as previously noted^32. […]
A general note: A western blot detects proteins with antibodies after separation by electrophoresis.

T1 sequence (Q7KZF4 with tags, fused parts or gaps): as the sequence (Q7KZF4 with tags, fused parts or gaps) above
T1 sequence (Q86UE4 386-407 partner): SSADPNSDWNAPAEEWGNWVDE
T3 sequence (P08659 with tags, fused parts or gaps INS416[withheld]): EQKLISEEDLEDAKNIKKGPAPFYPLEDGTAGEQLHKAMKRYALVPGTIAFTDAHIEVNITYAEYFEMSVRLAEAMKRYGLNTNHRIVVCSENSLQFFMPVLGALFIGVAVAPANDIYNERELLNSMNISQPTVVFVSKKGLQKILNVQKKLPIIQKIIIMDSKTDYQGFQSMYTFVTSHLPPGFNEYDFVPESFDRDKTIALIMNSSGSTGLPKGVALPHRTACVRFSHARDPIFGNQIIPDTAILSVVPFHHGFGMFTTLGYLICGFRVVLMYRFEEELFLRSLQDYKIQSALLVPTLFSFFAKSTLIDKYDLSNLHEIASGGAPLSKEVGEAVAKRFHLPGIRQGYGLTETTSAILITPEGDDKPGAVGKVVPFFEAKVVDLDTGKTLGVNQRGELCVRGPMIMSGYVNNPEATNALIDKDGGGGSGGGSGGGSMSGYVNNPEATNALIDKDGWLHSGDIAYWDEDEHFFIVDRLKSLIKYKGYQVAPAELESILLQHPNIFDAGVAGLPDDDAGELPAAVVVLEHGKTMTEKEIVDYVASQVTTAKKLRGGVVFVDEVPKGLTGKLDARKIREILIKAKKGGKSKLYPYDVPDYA

Turning to `COc1ccc(Cl)cc1S(=O)(=O)Nc1cccn2cnnc12` [Compound C26-A1], the IC50 (commonly the concentration needed to halve the response being measured) in assay [1] was 8.6 µM.

Consider `COc1ccc(NC(=O)N2CCc3c(C(=O)NC4CCN(C)CC4)cccc32)cc1` [Analog C32], for which the IC50 in assay [2] is less than 20 µM.

As for `COc1ccc(Cl)cc1S(=O)(=O)Nc1cccn2c(C3CCC3)nnc12` [Analog C26], the IC50 in assay [2] was less than 20 µM.

For `CC(=O)O[C@H]1C(=O)[C@@]2(C)[C@H]([C@H](OC(=O)c3ccccc3)[C@]3(O)C[C@H](OC(=O)[C@H](O)[C@@H](NC(=O)c4ccccc4)c4ccccc4)C(C)=C1C3(C)C)[C@]1(OC(C)=O)CO[C@@H]1C[C@@H]2O` [paclitaxel, reference compound], the “metastatic growth (BLI)” value in assay [3] (Pac 20 mg/kg, C26-A6 15 mg/kg 5 days per week) is listed as “slowed down metastatic growth”. For the same molecule, the metastasis shrinkage entry in assay [3] (six mice per group) is reported as “did not result in metastasis shrinkage”.

For the molecule “PNSDWNAPAEEWGNW [MTDH-WT, reference compound]”, the split-luc activity result in assay [2] was “significantly inhibited split-luc activity”. The linked-luc activity result in assay [4] is given as “not affected”. Besides, the “MTDH-SND1 interaction (SND1 that binds to MTDH, Co-IP)” value in assay [5] is listed as “blocks MTDH-SND1 interaction”.

In the case of `COc1ccc(NC(=O)N2CCc3c(C(=O)NC4CCN(C)CC4)cccc32)cc1` [Compound C32], in assay [1], the IC50 amounted to 51.1 µM.

On to `COc1ccc(NC(=O)N2CCc3c(C(=O)NC4CCN(C5CC5)CC4)cccc32)cc1` [Compound C32-A2], for which the IC50 in assay [1] was 14.5 µM.

In the case of `CNC(=O)c1cccc2c1CCN2C(=O)Nc1ccc(OC)cc1` [Compound C32-A4], the IC50 in assay [1] was 4.9 µM.

For `COc1ccc(Cl)cc1S(=O)(=O)Nc1cccn2nc(C)nc12` [Compound C26-A6], the IC50 in assay [1] turned out to be 2.4 µM.

For `COc1ccc(Cl)cc1S(=O)(=O)Nc1cccn2ncnc12` [Compound C26-A2], in assay [1], the IC50 came out at 9.4 µM.

Turning to `COc1ccc(NC(=O)N2CCc3c(C(=O)N(C)C)cccc32)cc1` [Compound C32-A5], the IC50 in assay [1] worked out at 4.6 µM.

As to `COc1ccc(Cl)cc1S(=O)(=O)Nc1cccn2c(C3CCC3)nnc12` [Compound C26], the IC50 in assay [1] came to 14.9 µM.

“PNSDANAPAEEAGNW [MTDH-MT, reference compound]”: the split-luc activity entry in assay [2] was “but not the mutant significantly inhibited split-luc activity”. For the same molecule, the linked-luc activity result in assay [4] was “not affected”.
